Values of other authors as cited in patent US12533388B2, “Compositions and methods for prevention and treatment of immune deficiency and inflammation” (The United States GOVERNMENT As Represented By The …, priority 2020, dated 2026).

Columns and labels:
Saccharomyces cerevisae = conditions: by inhibiting chitinase
[1] = test system: rat insulinoma cells (RINm5F); conditions: in vitro
[2] = test system: STZ-induced diabetic mice; conditions: as compared to the STZ-induced diabetic control group without CHP treatment

O=C1N[C@@H](Cc2cnc[nH]2)C(=O)N2CCC[C@@H]12 [CHP, Cyclo (His-Pro)]
growth of Saccharomyces cerevisae (Saccharomyces cerevisae): inhibit
STZ-induced cytotoxicity and apoptosis [1]: prevented
Oral glucose tolerance test (OGTT) values [2]: significantly decreased
plasma glucose levels dropped [2]: 60%
